Experimental data from patent US6376497B1, “Antifungal azole derivatives having a fluorinated vinyl group and process for preparing same” (Korea Research Institute of Chemical Technology, priority 1999, dated 2002).

Tests used:
Experiment in all cases: In vitro antifungal activity, microbroth dilution MIC
Type in all cases: cell-based
[1] = system: Aspergillus furnigatus B. 19119; settings: for Minimal inhibitory concentration (MIC): A furnigatus B. 19119, RPMI-1640, 35° C.; for Minimal inhibitory concentration(MIC), A furnigatus B. 19119: RPMI-1640, 35° C., no growth observed
Method in brief: (§1)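 Broth microdilution adapted from NCCLS M27, in RPMI-1640 with 0.165 M MOPS, pH 7.0. Yeast or mould inoculum at 2×10^3 CFU/ml was mixed 1:1 with DMSO-derived compound solutions (200 to 0.10 μg/ml before mixing) and incubated at 35 °C for 4 to 48 h. MIC was the concentration showing no growth.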

[2] = system: Aspergillus niger A. 16404; settings: for Minimal inhibitory concentration (MIC): A. niger A. 16404, RPMI-1640, 35° C.; for Minimal inhibitory concentration(MIC), A. niger A. 16404: RPMI-1640, 35° C., no growth observed
Method in brief: as §1

[3] = system: Candida albicans A. 10231; settings: 4 to 48 hours; for Minimal inhibitory concentration (MIC): C. albicans A. 10231, RPMI-1640, 35° C.; for Minimal inhibitory concentration(MIC), C. albicans A. 10231: RPMI-1640, 35° C., no growth observed
Method in brief: as §1

Candida albicans C1-2 = settings: 4 to 48 hours; for Minimal inhibitory concentration (MIC): C. albicans C1-2, RPMI-1640, 35° C.; for Minimal inhibitory concentration(MIC), C. albicans C1-2: RPMI-1640, 35° C., no growth observed
Method in brief: as §1

[4] = system: Candida albicans IFO. 1385; settings: 4 to 48 hours; for Minimal inhibitory concentration (MIC): C. albicans IFO. 1385, RPMI-1640, 35° C.; for Minimal inhibitory concentration(MIC), C. albicans IFO. 1385: RPMI-1640, 35° C., no growth observed
Method in brief: as §1

Candida krusei K. 11655 = settings: 4 to 48 hours; for Minimal inhibitory concentration (MIC): C. krusei K. 11655, RPMI-1640, 35° C.; for Minimal inhibitory concentration(MIC), C. krusei K. 11655: RPMI-1640, 35° C., no growth observed
Method in brief: as §1

[5] = system: Candida parapsitosis A. 7330; settings: 4 to 48 hours; for Minimal inhibitory concentration (MIC): C. parapsitosis A. 7330, RPMI-1640, 35° C.; for Minimal inhibitory concentration(MIC), C. parapsitosis A. 7330: RPMI-1640, 35° C., no growth observed
Method in brief: as §1

[6] = system: Candida pseudotropicalis K. 11658; settings: 4 to 48 hours; for Minimal inhibitory concentration (MIC): C. pseudotropicalis K. 11658, RPMI-1640, 35° C.; for Minimal inhibitory concentration(MIC), C. pseudotropicalis K. 11658: RPMI-1640, 35° C., no growth observed
Method in brief: as §1

[7] = system: Candida tropicalis A. 13803; settings: 4 to 48 hours; for Minimal inhibitory concentration (MIC): C. tropicalis A. 13803, RPMI-1640, 35° C.; for Minimal inhibitory concentration(MIC), C. tropicalis A. 13803: RPMI-1640, 35° C., no growth observed
Method in brief: as §1

[8] = system: Cryptococcus neoformans A. 34144; settings: for Minimal inhibitory concentration (MIC): Cry. neoformans A. 34144, RPMI-1640, 35° C.; for Minimal inhibitory concentration(MIC), Cry. neoformans A. 34144: RPMI-1640, 35° C., no growth observed
Method in brief: as §1

[9] = system: Cryptococcus neoformans B. 42419; settings: 4 to 48 hours; for Minimal inhibitory concentration (MIC): Cry. neoformans B. 42419, RPMI-1640, 35° C.; for Minimal inhibitory concentration(MIC), Cry. neoformans B. 42419: RPMI-1640, 35° C., no growth observed
Method in brief: as §1

[10] = system: Cryptococcus neoformans IFM. 40092; settings: for Minimal inhibitory concentration (MIC): Cry. neoformans IFM. 40092, RPMI-1640, 35° C.; for Minimal inhibitory concentration(MIC), Cry. neoformans IFM. 40092: RPMI-1640, 35° C., no growth observed
Method in brief: as §1

[11] = system: Torulopsis glabrata B. 16205; settings: 4 to 48 hours; for Minimal inhibitory concentration (MIC): T. glabrata B. 16205, RPMI-1640, 35° C.; for Minimal inhibitory concentration(MIC), T. glabrata B. 16205: RPMI-1640, 35° C., no growth observed
Method in brief: as §1

[12] = system: Trichophyton mentagrophytes A. 9129; settings: for Minimal inhibitory concentration (MIC): T. mentagrophytes A. 9129, RPMI-1640, 35° C.; for Minimal inhibitory concentration(MIC), T. mentagrophytes A. 9129: RPMI-1640, 35° C., no growth observed
Method in brief: as §1

[13] = system: Trichophyton mentagrophytes B. 32663; settings: for Minimal inhibitory concentration (MIC): T. mentagrophytes B. 32663, RPMI-1640, 35° C.; for Minimal inhibitory concentration(MIC), T. mentagrophytes B. 32663: RPMI-1640, 35° C., no growth observed
Method in brief: as §1

| Minimal inhibitory concentration (MIC) ([1]; 4 to 48 hours) | Minimal inhibitory concentration (MIC) ([2]; 4 to 48 hours) | Minimal inhibitory concentration (MIC) [3] | Minimal inhibitory concentration (MIC) (Candida albicans C1-2) | Minimal inhibitory concentration (MIC) [4] | Minimal inhibitory concentration (MIC) (Candida krusei K. 11655) | Minimal inhibitory concentration (MIC) [5] | Minimal inhibitory concentration (MIC) [6] | Minimal inhibitory concentration (MIC) [7] | Minimal inhibitory concentration (MIC) ([8]; 4 to 48 hours) | Minimal inhibitory concentration (MIC) [9] | Minimal inhibitory concentration (MIC) ([10]; 4 to 48 hours) | Minimal inhibitory concentration (MIC) [11] | Minimal inhibitory concentration (MIC) ([12]; 4 to 48 hours) | Minimal inhibitory concentration (MIC) ([13]; 4 to 48 hours) | Minimal inhibitory concentration(MIC), C. albicans A. 10231 [3] | Minimal inhibitory concentration(MIC), C. albicans C1-2 (Candida albicans C1-2) | Minimal inhibitory concentration(MIC), C. albicans IFO. 1385 [4] | Minimal inhibitory concentration(MIC), C. krusei K. 11655 (Candida krusei K. 11655) | Minimal inhibitory concentration(MIC), C. parapsitosis A. 7330 [5] | SMILES | other results |
| --- | --- | --- | --- | --- | --- | --- | --- | --- | --- | --- | --- | --- | --- | --- | --- | --- | --- | --- | --- | --- | --- |
| 50.0 µg/mL | >100 µg/mL | 12.5 µg/mL | 12.5 µg/mL | 0.78 µg/mL | >100 µg/mL | >100 µg/mL | >100 µg/mL | 100 µg/mL | 1.56 µg/mL | 0.78 µg/mL | 0.20 µg/mL | 6.25 µg/mL | 6.25 µg/mL | 3.13 µg/mL | – | – | – | – | – | Cc1ccc(C(=C(F)OCC2COC(Cn3ccnc3)(c3ccc(F)cc3F)O2)C(F)(F)F)cc1C (mixture of isomers) [Ex. 56] | – |
| – | – | – | – | – | – | – | – | – | – | – | – | – | – | – | 50.0 µg/mL | 100 µg/mL | 6.25 µg/mL | >100 µg/mL | >100 µg/mL | FC(Oc1ccc(OCC2COC(Cn3ccnc3)(c3ccc(Cl)cc3Cl)O2)cc1)=C(c1ccc(Oc2ccccc2)cc1)C(F)(F)F (mixture of isomers) [Ex. 100] | Minimal inhibitory concentration(MIC), A furnigatus B. 19119 ([1]; 4 to 48 hours): >100 µg/mL; Minimal inhibitory concentration(MIC), A. niger A. 16404 ([2]; 4 to 48 hours): >100 µg/mL; Minimal inhibitory concentration(MIC), C. pseudotropicalis K. 11658 [6]: >100 µg/mL; Minimal inhibitory concentration(MIC), C. tropicalis A. 13803 [7]: >100 µg/mL; Minimal inhibitory concentration(MIC), Cry. neoformans A. 34144 ([8]; 4 to 48 hours): 6.25 µg/mL; Minimal inhibitory concentration(MIC), Cry. neoformans B. 42419 [9]: 12.5 µg/mL; Minimal inhibitory concentration(MIC), Cry. neoformans IFM. 40092 ([10]; 4 to 48 hours): 1.56 µg/mL; Minimal inhibitory concentration(MIC), T. glabrata B. 16205 [11]: >100 µg/mL; Minimal inhibitory concentration(MIC), T. mentagrophytes A. 9129 ([12]; 4 to 48 hours): 100 µg/mL; Minimal inhibitory concentration(MIC), T. mentagrophytes B. 32663 ([13]; 4 to 48 hours): 100 µg/mL |
| 12.5 µg/mL | 100 µg/mL | 12.5 µg/mL | 12.5 µg/mL | 0.78 µg/mL | 25.0 µg/mL | 25.0 µg/mL | 25.0 µg/mL | 25.0 µg/mL | 0.78 µg/mL | 0.78 µg/mL | ≦0.10 μg/ml | 6.25 µg/mL | 6.25 µg/mL | 1.56 µg/mL | – | – | – | – | – | Cc1cc(C)c(C=C(F)OCC2COC(Cn3ccnc3)(c3ccc(F)cc3F)O2)cc1C (mixture of isomers) [Ex. 42] | – |
| – | – | – | – | – | – | – | – | – | – | – | – | – | – | – | >100 µg/mL | >100 µg/mL | 0.39 µg/mL | 0.39 µg/mL | 0.78 µg/mL | FC(=C(c1ccc(Cl)cc1)C(F)(F)F)N1CCN(c2ccc(OCC3COC(Cn4ccnc4)(c4ccc(F)cc4F)O3)cc2)CC1 (mixture of isomers) [Ex. 149] | Minimal inhibitory concentration(MIC), A furnigatus B. 19119 [1]: 6.25 µg/mL; Minimal inhibitory concentration(MIC), A. niger A. 16404 [2]: 100 µg/mL; Minimal inhibitory concentration(MIC), C. pseudotropicalis K. 11658 [6]: 0.39 µg/mL; Minimal inhibitory concentration(MIC), C. tropicalis A. 13803 [7]: >100 µg/mL; Minimal inhibitory concentration(MIC), Cry. neoformans A. 34144 [8]: 0.78 µg/mL; Minimal inhibitory concentration(MIC), Cry. neoformans B. 42419 [9]: 0.39 µg/mL; Minimal inhibitory concentration(MIC), Cry. neoformans IFM. 40092 [10]: ≦0.10 μg/ml; Minimal inhibitory concentration(MIC), T. glabrata B. 16205 [11]: 50.0 µg/mL; Minimal inhibitory concentration(MIC), T. mentagrophytes A. 9129 [12]: 3.13 µg/mL; Minimal inhibitory concentration(MIC), T. mentagrophytes B. 32663 [13]: ≦0.10 μg/ml |
